The values that follow come from patent US9012648B2, “Haptens of risperidone and paliperidone” (Janssen Pharmaceutica NV, priority 2012, dated 2015).

One assay has as its system hybridoma subclone 2A5. Kind of assay: Competition ELISA, hybridoma subclone 2A5 supernatant (FIG. 3). It is filed as binding, mouse. As to the method:
Supernatants were also tested by competition ELISA to determine if the signals were specific to either risperidone or paliperidone. […] In this competitive format as show in FIG. 4, a low level of analyte (risperidone) results in high signal, whereas a high level of analyte (risperidone) results in low signal. The amount of risperidone in the sample can be calculated from the loss of fluorescence compared to a control sample with no drug present.
(In general: An ELISA detects its analyte on a solid surface through an enzyme-linked reagent.)

Assay [1] can be described thus: ELISA reactivity of hybridoma supernatants, Ag = Bt-Compound#1 (second TABLE 1). It is filed as binding, mouse.
Where [2] appears, read: Dilution 10800, duplicate wells.

“And” between values parts separate entries of the source, which are not always exact repeats. Equal values may be shown once.

With `Cc1nc2n(c(=O)c1CCN1CCC(c3noc4cc(F)ccc34)CC1)CCCC2O` (stereo not shown) [paliperidone], in the assay on hybridoma subclone 2A5, the “competition ELISA reactivity (in words)” value is “reactivity”.
With `Cc1nc2n(c(=O)c1CCN1CCC(c3noc4cc(F)ccc34)CC1)CCCC2` [risperidone], the “competition ELISA reactivity (in words)” value in the assay on hybridoma subclone 2A5 is recorded as “reactivity”.
“2-(2,5-dioxo-2,5-dihydro-1H-pyrrol-1-yl)-N-(2-((3-(1-(2-(9-hydroxy-2-methyl-4-oxo-6,7,8,9-tetrahydro-4H-pyrido[1,2-a]pyrimidin-3-yl)ethyl)piperidin-4-yl)benzo[d]isoxazol-6-yl)oxy)ethyl)acetamide-keyhole limpet hemocyanin-conjugate [Example 5]”: the ELISA reactivity in assay [1] (Dilution 400, duplicate wells) is 3.2897 and 3.1103; in assay [1] (Dilution 1200, duplicate wells), 1.4605 and 1.4817; in assay [1] (Dilution 3600, duplicate wells), 0.4617 and 0.4159; in assay [1] (setting [2]), 0.1149 and 0.1127.
For the compound `Cc1nc2n(c(=O)c1CCN1CCC(c3noc4cc(OCCN)ccc34)CC1)CCCC2O` (stereo not shown) [Example 1, 3-(2-(4-(6-(2-aminoethoxy)benzo[d]isoxazol-3-yl)piperidin-1-yl)ethyl)-9-hydroxy-2-methyl-6,7,8,9-tetrahydro-4H-pyrido[1,2-a]pyrimidin-4-one], the ELISA reactivity in assay [1] (Dilution 400, duplicate wells) was 3.2562 and 3.1217; in assay [1] (Dilution 1200, duplicate wells), 1.3591 and 1.2607; in assay [1] (Dilution 3600, duplicate wells) it was 0.3745 and 0.3281; in assay [1] (setting [2]), 0.0918 and 0.0879.
